# Data as given in paper PMC4995097, “Talin-KANK1 interaction controls the recruitment of cortical microtubule stabilizing complexes to focal adhesions” (eLife, 2016).
# Experiments:
# Type in all cases: cell-based, human
# [1] = tested on: focal adhesions in HeLa cells; assay: FA number
# Experimental: (§1) HeLa Kyoto cell line was described previously ([Lansbergen et al., 2006]; [Mimori-Kiyosue et al., 2005]). HEK293T cells were purchased from ATCC; culture and transfection of DNA and siRNA into these cell lines was performed as previously described ([van der Vaart et al., 2013]). HaCaT cells were purchased at Cell Line Service (Eppelheim, Germany) and cultured according to manufacturer’s instructions. The cell lines were routinely checked for mycoplasma contamination using LT07-518 Mycoalert assay (Lonza, Switzerland).The identity of the cell lines was monitored by immunofluorescence-staining-based analysis with multiple markers. Blebbistatin was purchased from Enzo Life Sciences and used at 50 μM. Serum starvation in HeLa cells was done for 48 hr and focal adhesion assembly was stimulated by incubation with fetal calf serum-containing medium with or without blebbistatin for 2 hr. ROCK1 inhibitor Y-27632 was purchased at Sigma-Aldrich and used at 1 or 10 μM. Double stable HeLa cell line expressing GFP-KANK1 and TagRFP-paxillin was made by viral infection. We used a pLVIN-TagRFP-paxillin-based lentivirus and a pQC-GFP-KANK1-based retrovirus packaged in HEK293T cells using respectively Lenti-X HTX packaging and pCL-Ampho vectors. Antibiotic selection was applied to cells 48 hr after infection using 500 μg/ml G418 (Geneticin, Life Technologies) and 1 μg/ml puromycin (InvivoGen).
# For presentation, images were adjusted for brightness and processed by Gaussian blur and Unsharp mask filter using ImageJ 1.47v (NIH). Fluorescence profiles are values measured by line scan analysis in ImageJ, normalized by background average fluorescence, expressed as a factor of the baseline value obtained for individual channel and plotted as a function of maximum length factor of the selection line (distance ratio). Protein clustering at the cell edge is the ratio of the total fluorescence in the first 5 μm from the cell edge to the next 5 μm measured by line scan analysis in ImageJ after thresholding for cell outline marking and out-of-cell region value assigned to zero. The results were plotted as percentage of control condition average value. FA counting and area measurement was performed using Analyze Particles under ImageJ on focal adhesion binary mask obtained after Gaussian blur/threshold-based cell outline marking and background subtraction (rolling ball radius, 10 pixels). KANK1/talin colocalization was analyzed using Pearson R value provided by Colocalization Analysis plugin under FiJi-ImageJ and a 3 μm diameter circular ROI centered on talin clusters detected by immunofluorescent staining.
# [2] = tested on: microtubule plus ends in HeLa cells; assay: Angles of microtubule growth relative to the cell margin; details: talin1/2-depleted HeLa
# Experimental: nEB3-mRFP dynamics was recorded by 0.5 s interval time lapse TIRF imaging. Microtubule growth was measured using kymographs obtained from EB3-mRFP time lapse image series, plotted and presented as previously described ([van der Vaart et al., 2013]). Ratio of microtubule growth in cell center to periphery was obtained as values for individual cells. Microtubule growth trajectory angle to the cell edge was manually measured in ImageJ using tracks obtained by maximum intensity projection of EB3-mRFP image series.
# [3] = tested on: LL5β at the cell edge of HeLa cells; assay: Peripheral clustering of LL5β; details: talin1/2-depleted HeLa rescue (Fig 4G); mean, n = 12, SEM 4.85049
# Experimental: as §1
# (§2) Antibodies against HA and GFP tags, and liprin β1 used for Western blot analysis were previously described ([van der Vaart et al., 2013]). Rabbit antibodies against KANK1 (HPA005539) and KANK2 (HPA015643) were purchased at Sigma-Aldrich. Western blot analysis of KANK1 was performed using rabbit polyclonal KANK1 antibody (A301-882A) purchased at Bethyl Laboratories. Talin immunofluorescence staining was performed using mouse monoclonal 8d4 antibody (Sigma-Aldrich). Western blot analysis of talin 1 and 2 expression was performed using respectively the isotype specific mouse monoclonal 97H6 (Sigma-Aldrich) and 68E7 (Abcam) antibodies. Ku80 (7/Ku80) antibody was purchased from BD Biosciences. Immunofluorescence staining of KANK1, LL5β, liprin β1, KIF21A and CLASP2 in HeLa and HaCaT cells was performed using the antibodies and procedures previously described ([Lansbergen et al., 2006]; [van der Vaart et al., 2013]). F-actin was stained using Alexa Fluor 594-conjugated phalloidin (Life Technologies). Phospho-tyrosine mouse antibody (PT-66) was purchased from Sigma-Aldrich and rabbit FAK phospho-tyrosine 397 was purchased from Biosource.
# Fixed samples and corresponding immunofluorescence images were acquired using widefield fluorescence illumination on a Nikon Eclipse 80i or Ni upright microscope equipped with a CoolSNAP HQ2 CCD camera (Photometrics) or a DS-Qi2 camera (Nikon) an Intensilight C-HGFI precentered fiber illuminator (Nikon), ET-DAPI, ET-EGFP and ET-mCherry filters (Chroma), Nikon NIS Br software, Plan Apo VC 100x NA 1.4 oil, Plan Apo Lambda 100X oil NA 1.45 and Plan Apo VC 60x NA 1.4 oil (Nikon) objectives. […]
# [4] = tested on: KANK1 at the cell edge of HeLa cells; assay: Peripheral clustering of KANK1
# Experimental: as §1, §2
# Fixed samples and corresponding immunofluorescence images were acquired using widefield fluorescence illumination on a Nikon Eclipse 80i or Ni upright microscope equipped with a CoolSNAP HQ2 CCD camera (Photometrics) or a DS-Qi2 camera (Nikon) an Intensilight C-HGFI precentered fiber illuminator (Nikon), ET-DAPI, ET-EGFP and ET-mCherry filters (Chroma), Nikon NIS Br software, Plan Apo VC 100x NA 1.4 oil, Plan Apo Lambda 100X oil NA 1.45 and Plan Apo VC 60x NA 1.4 oil (Nikon) objectives. TIRFM-based live cell imaging was performed using the setup described before ([van der Vaart et al., 2013]) or a similar Nikon Ti microscope-based Ilas^2 system (Roper Scientific, Evry, FRANCE) equipped with dual laser illuminator for azimuthal spinning TIRF (or Hilo) illumination, 150 mW 488 nm laser and 100 mW 561 nm laser, 49,002 and 49,008 Chroma filter sets, EMCCD Evolve mono FW DELTA 512x512 camera (Roper Scientific) with the intermediate lens 2.5X (Nikon C mount adapter 2.5X), CCD camera CoolSNAP MYO M-USB-14-AC (Roper Scientific) and controlled with MetaMorph 7.8.8 software (Molecular Devices). Simultaneous imaging of […] was performed as described before ([van der Vaart et al., 2013]) or using the Optosplit III image splitter device (Andor) on the Ilas^2 system.
# For presentation, images were adjusted for brightness and processed by Gaussian blur and Unsharp mask filter using ImageJ 1.47v (NIH). […]
substance,measurement,setting,value
GFP-talin1-G1404L: GFP-tagged mouse talin1 with single point mutation G1404L,AV #FA,"[1]; HeLa, TLN1-KD, mTLN1 rescue, mean FA number per cell, Count 12",55.3333
same,number and size of focal adhesions (in words),[1]; compared to rescue with wild type talin1,not significantly different
same,proportion of microtubules growing parallel to the cell edge (in words),[2],greatly increased
same,"Peripheral clustering of LL5β, percentage of control, AV, talin rescue",[3],20.7686 percentage of control condition average value
same,"Peripheral clustering of KANK1, edge ratio, AV","[4]; talin1/2-depleted HeLa rescued with GFP-talin1 (Fig 3F), mean, n = 12",0.9974
same,"KANK1 distribution, talin rescue (in words)","[4]; talin1/2-depleted HeLa, Figure 3E,F",dispersed over the plasma membrane
